Measurements from patent EP4509511A1, “SUBSTITUTED SPIRO-ISOXAZOLINYL LACTAMS, SALTS THEREOF AND THEIR USE AS HERBICIDALLY ACTIVE SUBSTANCES” (Bayer Aktiengesellschaft, priority 2023, dated 2025).

Tests used:
[1] = system: ABUTH; assay: Herbicidal pre-emergence action - Part I; format: in vivo, Abutilon theophrasti; conditions: visual grading after ca. 3 weeks vs untreated controls
From the text: (§1) Seeds of mono- and dicotyledonous weed plants were sown in plastic pots (double sowings with one species of mono- and one species of dicotyledonous weed plants per pot), in sandy loam, and covered with soil. The compounds according to the invention, formulated in the form of wettable powders (WP) or as emulsifiable concentrates (EC), were applied to the surface of the covering soil as aqueous suspension or emulsion, with the addition of 0.5% of an additive, at an application rate of 600 1 of water per hectare (converted). Following treatment, the pots were placed in a greenhouse and kept under optimum growth conditions for the test plants. The visual grading of the damage to the test plants was carried out after ca. 3 weeks in comparison to untreated controls (herbicidaleffectinpercent(%):100%effect=plantshavediedoff,0%effect=ascontrolplants). [formula]
(§2) Tables A1 to A12, below, show the effects of selected compounds of the general formula (I) according to table 1 on various harmful plants and an application rate corresponding to 1280 g/ha or below obtained by the experimental procedure mentioned above. Table A1: pre-emergence activity at 1280g/ha against ABUTH in %

[2] = system: ECHCG; assay: Herbicidal pre-emergence action - Part I; format: in vivo, Echinochloa crus-galli; conditions: 1280 g/ha, visual grading after ca. 3 weeks vs untreated controls
From the text: as §1, §2

[3] = system: MATIN; assay: Herbicidal pre-emergence action - Part I; format: in vivo, Matricaria inodora; conditions: visual grading after ca. 3 weeks vs untreated controls
From the text: as §1, §2

[4] = system: SETVI; assay: Herbicidal pre-emergence action - Part I; format: in vivo, Setaria viridis; conditions: 1280 g/ha, visual grading after ca. 3 weeks vs untreated controls
From the text: as §1, §2

[5] = system: STEME; assay: Herbicidal pre-emergence action - Part I; format: in vivo, Stellaria media; conditions: visual grading after ca. 3 weeks vs untreated controls
From the text: as §1, §2

[6] = system: POAAN; assay: Herbicidal pre-emergence action - Part I; format: in vivo, Poa annua; conditions: visual grading after ca. 3 weeks vs untreated controls
From the text: as §1, §2

[7] = system: AMARE; assay: Herbicidal pre-emergence action - Part I; format: in vivo, Amaranthus retroflexus; conditions: visual grading after ca. 3 weeks vs untreated controls
From the text: as §1, §2

[8] = system: KCHSC; assay: Herbicidal pre-emergence action - Part I; format: in vivo, Kochia scoparia; conditions: Table A10a, 1280 g/ha, visual grading after ca. 3 weeks vs untreated controls
From the text: as §1, §2

[9] = system: DIGSA; assay: Herbicidal pre-emergence action - Part I; format: in vivo, Digitaria sanguinalis; conditions: visual grading after ca. 3 weeks vs untreated controls
From the text: as §1, §2

[10] = system: ABUTH; assay: Herbicidal post-emergence action - Part I; format: in vivo, Abutilon theophrasti; conditions: 320 g/ha, one-leaf stage, rated visually after about 3 weeks vs untreated controls
Method: (§3) Seeds of mono- and dicotyledonous weed plants were placed in plastic pots in sandy loam soil (doubly sown with in each case one species of mono- or dicotyledonous weed plants per pot), covered with soil and cultivated in a greenhouse under controlled growth conditions. 2 to 3 weeks after sowing, the test plants were treated at the one-leaf stage. The compounds of the invention, formulated in the form of wettable powders (WP) or as emulsion concentrates (EC), were applied onto the green parts of the plants as aqueous suspension or emulsion with addition of 0.5% additive at a water application rate of 600 liters per hectare (converted). After the test plants had been kept in the greenhouse under optimum growth conditions for about 3 weeks, the activity of the preparations was rated visually in comparison to untreated controls. For example, 100% activity = the plants have died, 0% activity = like control plants. Tables B1 to B12, below, show the effects of selected compounds of the general formula (I) according to table 1 on various harmful plants and an application rate corresponding to 1280 g/ha or below obtained by the experimental procedure mentioned above. Table B1a: post-emergence activity at 1280g/ha against ABUTH in %

[11] = system: ECHCG; assay: Herbicidal post-emergence action - Part I; format: in vivo, Echinochloa crus-galli; conditions: one-leaf stage, rated visually after about 3 weeks vs untreated controls
Method: as §3

[12] = system: MATIN; assay: Herbicidal post-emergence action - Part I; format: in vivo, Matricaria inodora; conditions: one-leaf stage, rated visually after about 3 weeks vs untreated controls
Method: as §3

[13] = system: STEME; assay: Herbicidal post-emergence action - Part I; format: in vivo, Stellaria media; conditions: one-leaf stage, rated visually after about 3 weeks vs untreated controls
Method: as §3

[14] = system: POAAN; assay: Herbicidal post-emergence action - Part I; format: in vivo, Poa annua; conditions: one-leaf stage, rated visually after about 3 weeks vs untreated controls
Method: as §3

[15] = system: AMARE; assay: Herbicidal post-emergence action - Part I; format: in vivo, Amaranthus retroflexus; conditions: one-leaf stage, rated visually after about 3 weeks vs untreated controls
Method: as §3

[16] = system: KCHSC; assay: Herbicidal post-emergence action - Part I; format: in vivo, Kochia scoparia; conditions: 1280 g/ha, one-leaf stage, rated visually after about 3 weeks vs untreated controls
Method: as §3

[17] = system: VERPE; assay: Herbicidal post-emergence action - Part I; format: in vivo, Veronica persica; conditions: one-leaf stage, rated visually after about 3 weeks vs untreated controls
Method: as §3

[18] = system: ABUTH; assay: Herbicidal post-emergence action - Part II; format: in vivo, Abutilon theophrasti
From the text: (§4) Seeds of mono- and dicotyledonous weed plants and crop plants were sown, in plastic or organic planting pots, in sandy loam, covered with soil and grown in a greenhouse under controlled growth conditions. 2 to 3 weeks after sowing, the test plants were sprayed in the single-leaf stage. The compounds according to the invention, formulated in form of wettable powders (WP) or as emulsifiable concentrates (EC), were sprayed onto the green plant parts as aqueous suspension or emulsion, with the addition of 0.5% of an additive, at an application rate of 600 1 of water/ha (converted). The test plants were placed in the greenhouse for ca. 3 weeks under optimum growth conditions, and then the effect of the preparations was assessed visually in comparison with untreated controls (herbicidal effect in percent (%): 100% effect = plants have died off, 0% effect = as control plants). Tables E1 to E10 below show the effects of selected compounds of the general formula (I) according to table 1 on various harmful plants and an application rate corresponding to 320 g/ha or below obtained by the experimental procedure mentioned above. Table E1a: post-emergence activity at 5g/ha against ABUTH in %

[19] = system: AMARE; assay: Herbicidal post-emergence action - Part II; format: in vivo, Amaranthus retroflexus
From the text: as §4

[20] = system: ECHCG; assay: Herbicidal post-emergence action - Part II; format: in vivo, Echinochloa crus-galli; conditions: 20 g/ha; Table E3a
From the text: as §4

[21] = system: MATIN; assay: Herbicidal post-emergence action - Part II; format: in vivo, Matricaria inodora; conditions: 20 g/ha; Table E4b
From the text: as §4

[22] = system: PHBPU; assay: Herbicidal post-emergence action - Part II; format: in vivo, Pharbitis purpurea
From the text: as §4

[23] = system: SETVI; assay: Herbicidal post-emergence action - Part II; format: in vivo, Setaria viridis
From the text: as §4

[24] = system: VERPE; assay: Herbicidal post-emergence action - Part II; format: in vivo, Veronica persica
From the text: as §4

[25] = system: VIOTR; assay: Herbicidal post-emergence action - Part II; format: in vivo, Viola tricolor
From the text: as §4

[26] = system: ZEAMX; assay: Post-emergence effects on crop plants; format: in vivo, Zea mays; conditions: crop plant
From the text: as §4, with “F1” for “E1”, “F5” for “E10”, “crop” for “harmful”, “[…]:” for “E1a:”, “ZEAMX” for “ABUTH”

[27] = system: TRZAS; assay: Post-emergence effects on crop plants; format: in vivo, Triticum aestivum; conditions: 5 g/ha; Table F2a; crop plant
From the text: as §4, with “F1” for “E1”, “F5” for “E10”, “crop” for “harmful”, “[…]:” for “E1a:”, “ZEAMX” for “ABUTH”

N#Cc1ncccc1C1=NOC2(CCN(Cc3cccc(F)c3F)C2=O)C1 (racemic) [Compound I-41]
90%: pre-emergence activity at 320g/ha against MATIN in % ([3]; 320 g/ha) | pre-emergence activity at 320g/ha against STEME in % ([5]; 320 g/ha) | pre-emergence activity at 1280g/ha against STEME in % ([5]; 1280 g/ha) | pre-emergence activity at 320g/ha against AMARE in % ([7]; 320 g/ha) | pre-emergence activity at 1280g/ha against AMARE in % ([7]; 1280 g/ha) | pre-emergence activity at 1280g/ha against KCHSC in % [8] | pre-emergence activity at 320g/ha against DIGSA in % ([9]; 320 g/ha) | post-emergence activity at 320g/ha against ECHCG in % ([11]; 320 g/ha) | post-emergence activity at 80g/ha against POAAN in % ([14]; 80 g/ha) | post-emergence activity at 320g/ha against POAAN in % ([14]; 320 g/ha) | post-emergence activity at 1280g/ha against POAAN in % ([14]; 1280 g/ha) | post-emergence activity at 80g/ha against AMARE in % ([15]; 80 g/ha) | post-emergence activity at 320g/ha against AMARE in % ([15]; 320 g/ha) | post-emergence activity at 1280g/ha against KCHSC in % [16] | post-emergence activity at 320g/ha against VERPE in % ([17]; 320 g/ha)
100%: pre-emergence activity at 1280g/ha against ABUTH in % [1] | pre-emergence activity at 1280g/ha against ECHCG in % [2] | pre-emergence activity at 1280g/ha against MATIN in % ([3]; 1280 g/ha) | pre-emergence activity at 1280g/ha and against SETVI in % [4] | pre-emergence activity at 320g/ha and against POAAN in % ([6]; 320 g/ha) | pre-emergence activity at 1280g/ha and against POAAN in % ([6]; 1280 g/ha) | pre-emergence activity at 1280g/ha against DIGSA in % ([9]; 1280 g/ha) | post-emergence activity at 320g/ha against ABUTH in % [10] | post-emergence activity at 1280g/ha against ECHCG in % ([11]; 1280 g/ha) | post-emergence activity at 320g/ha against MATIN in % ([12]; 320 g/ha) | post-emergence activity at 1280g/ha against MATIN in % ([12]; 1280 g/ha) | post-emergence activity at 80g/ha against STEME in % ([13]; 80 g/ha) | post-emergence activity at 320g/ha against STEME in % ([13]; 320 g/ha) | post-emergence activity at 1280g/ha against STEME in % ([13]; 1280 g/ha) | post-emergence activity at 1280g/ha against AMARE in % ([15]; 1280 g/ha) | post-emergence activity at 1280g/ha against VERPE in % ([17]; 1280 g/ha)

Cn1c(C(F)(F)F)cc(=O)n(-c2cc(C3=NOC4(CCN(Cc5ccccc5F)C4=O)C3)c(Cl)cc2F)c1=O (racemic) [Compound I-28]
20%: post-emergence activity against ZEAMX ([26]; 5 g/ha, Table F1a) | post-emergence activity against ZEAMX ([26]; 20 g/ha, Table F1b) | post-emergence activity against TRZAS [27]
80%: post-emergence activity against ABUTH ([18]; 5 g/ha, Table E1a) | post-emergence activity against SETVI ([23]; 5 g/ha, Table E7a)
100%: post-emergence activity against ABUTH ([18]; 20 g/ha, Table E1b) | post-emergence activity against AMARE ([19]; 5 g/ha, Table E2a) | post-emergence activity against AMARE ([19]; 20 g/ha, Table E2b) | post-emergence activity against ECHCG [20] | post-emergence activity against MATIN [21] | post-emergence activity against PHBPU ([22]; 5 g/ha, Table E5a) | post-emergence activity against PHBPU ([22]; 20 g/ha, Table E5b) | post-emergence activity against SETVI ([23]; 20 g/ha, Table E7b) | post-emergence activity against VERPE ([24]; 5 g/ha, Table E8a) | post-emergence activity against VERPE ([24]; 20 g/ha, Table E8b) | post-emergence activity against VIOTR ([25]; 5 g/ha, Table E9a) | post-emergence activity against VIOTR ([25]; 20 g/ha, Table E9b)
